Tests used:
[1] = system: ABUTH (Abutilon theophrasti); test: Postemergence herbicidal evaluation; type: in vivo, Medic.
Procedure, shortened: (§1)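 Visual 0–9 injury scores versus control plants, covering stand, vigour, malformation, size, chlorosis and general appearance, taken four to five weeks post-spray and averaged over replicate tests. Plants were sprayed at roughly two weeks old and held on greenhouse benches.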

[2] = system: AMBEL (Ambrosia artemisifolia); test: Postemergence herbicidal evaluation; type: in vivo, L.
Procedure, shortened: as §1

[3] = system: CASOB (Cassia obtusifolia); test: Postemergence herbicidal evaluation; type: in vivo, L.
Procedure, shortened: as §1

[4] = system: CHEAL (Chenopodium album); test: Postemergence herbicidal evaluation; type: in vivo, L.
Procedure, shortened: as §1

[5] = system: IPOHE (Ipomoea hederacea); test: Postemergence herbicidal evaluation; type: in vivo, (L.) Jacq.
Procedure, shortened: as §1

[6] = system: ECHCG (Echinochloa crus-galli); test: Postemergence herbicidal evaluation; type: in vivo, (L.) Beau
Procedure, shortened: as §1

[7] = system: ORYSAT (Rice, Tebonnet); test: Postemergence herbicidal evaluation; type: in vivo, Oryza sativa, (L.) Tebonnet
Procedure, shortened: as §1

[8] = system: TRZAWR (Wheat, Winter, cv Riband); test: Postemergence herbicidal evaluation; type: in vivo, Triticum aestivum
Procedure, shortened: as §1

[9] = system: ZEAMX (Corn, Field); test: Postemergence herbicidal evaluation; type: in vivo, Zea mays, L.
Procedure, shortened: as §1

[10] = system: ABUTH (Abutilon theophrasti); test: Preemergence herbicidal evaluation; type: in vivo, Medic.; settings: rated 4-5 weeks after treatment
[11] = system: AMBEL (Ambrosia artemisifolia); test: Preemergence herbicidal evaluation; type: in vivo, L.; settings: rated 4-5 weeks after treatment
Procedure, shortened: (§2)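 Preemergence soil spray, aq. acetone; greenhouse; visual 0–9 score vs control at 4–5 wk.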

[12] = system: CASOB (Cassia obtusifolia); test: Preemergence herbicidal evaluation; type: in vivo, L.; settings: rated 4-5 weeks after treatment
Procedure, shortened: as §2

[13] = system: CHEAL (Chenopodium album); test: Preemergence herbicidal evaluation; type: in vivo, L.; settings: rated 4-5 weeks after treatment
Procedure, shortened: as §2

[14] = system: ORYSAT (Rice, Tebonnet); test: Preemergence herbicidal evaluation; type: in vivo, Oryza sativa, (L.) Tebonnet; settings: rated 4-5 weeks after treatment
[15] = system: TRZAWR (Wheat, Winter, cv Riband); test: Preemergence herbicidal evaluation; type: in vivo, Triticum aestivum; settings: rated 4-5 weeks after treatment
Procedure, shortened: as §2

[16] = system: ECHORC (Echinochloa oryzoides); test: Flooded paddy, preemergence weed control; type: in vivo, Echinochloa oryzoides (Ard.) Fritsch.; settings: rated 3-4 weeks after treatment, 0-9 rating scale
Procedure, shortened: (§3)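 Greenhouse paddy test, preemergence. Seeds planted in the top 0.5 cm of silt loam soil, which remained flooded at 1.5–3 cm depth. Scored 0-9 by visual comparison with control.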

[17] = system: CYPSE (Cyperus serotinus); test: Flooded paddy, preemergence weed control; type: in vivo, Rottb.; settings: rated 3-4 weeks after treatment, 0-9 rating scale
Procedure, shortened: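 Seeds or propagules were planted 0.5 cm deep in silt loam and flooded to 1.5–3 cm. Compounds in 50/50 v/v aqueous/acetone were pipetted into the flood water at about 0.0080 to 0.1250 kg/ha. After 3–4 weeks in the greenhouse, effect was rated visually on a 0–9 scale versus untreated control.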

[18] = system: SAGPY (Sagittaria pygmaea); test: Flooded paddy, preemergence weed control; type: in vivo, L.; settings: rated 3-4 weeks after treatment, 0-9 rating scale
Procedure, shortened: as §3

[19] = system: ORYSAT (Rice, Tebonnet); test: Flooded paddy, post-transplant rice tolerance; type: in vivo, Oryza sativa, (L.) Tebonnet; settings: flooded paddy, post-transplant rice, rated 3-4 weeks after treatment, 0-9 rating scale
Procedure, shortened: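 Ten-day-old seedlings, 2/pot, silt loam; flood kept 1.5–3 cm over soil; herbicide applied post-transplant; greenhouse; score 0–9 visual vs control.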

With `CCOc1cc(OCC)nc(-c2nsc3ccc(-n4c(=O)cc(C(F)(F)F)n(C)c4=O)cc23)n1` [Compound 43, 3-[3-(4,6-diethoxy-2-pyrimidinyl)-1,2-benzisothiazol-5-yl]-1-methyl-6-(trifluoromethyl)uracil] the “Postemergence herbicidal rating, ABUTH” value ([1]; rate 0.0320 kg/ha) was 9.0, the “Postemergence herbicidal rating, ABUTH” value ([1]; rate 0.0620 kg/ha) was 9.0 and the “Postemergence herbicidal rating, AMBEL” value ([2]; rate 0.0320 kg/ha) was 9.0. For the same compound, the “Postemergence herbicidal rating, AMBEL” value ([2]; rate 0.0620 kg/ha) was 9.0, the “Postemergence herbicidal rating, CASOB” value ([3]; rate 0.0320 kg/ha) was 2.0 and the “Postemergence herbicidal rating, CASOB” value ([3]; rate 0.0620 kg/ha) was 3.0. The “Postemergence herbicidal rating, CHEAL” value ([4]; rate 0.0320 kg/ha) was 6.0, the “Postemergence herbicidal rating, CHEAL” value ([4]; rate 0.0620 kg/ha) was 9.0 and the “Postemergence herbicidal rating, IPOHE” value ([5]; rate 0.0320 kg/ha) was 9.0. The “Postemergence herbicidal rating, IPOHE” value ([5]; rate 0.0620 kg/ha) was 9.0, the “Postemergence herbicidal rating, ECHCG” value ([6]; rate 0.0320 kg/ha) was 2.0 and the “Postemergence herbicidal rating, ECHCG” value ([6]; rate 0.0620 kg/ha) was 2.0. The “Postemergence herbicidal rating, ORYSAT” value ([7]; rate 0.0320 kg/ha) was 2.0, the “Postemergence herbicidal rating, ORYSAT” value ([7]; rate 0.0620 kg/ha) was 2.0 and the “Postemergence herbicidal rating, TRZAWR” value ([8]; rate 0.0320 kg/ha) was 2.5. The “Postemergence herbicidal rating, TRZAWR” value ([8]; rate 0.0620 kg/ha) was 3.5, the “Postemergence herbicidal rating, ZEAMX” value ([9]; rate 0.0320 kg/ha) was 4.5 and the “Postemergence herbicidal rating, ZEAMX” value ([9]; rate 0.0620 kg/ha) was 4.5. The “Preemergence herbicidal rating ABUTH” value ([10]; Rate 0.0620 kg/ha) was 4.0, the “Preemergence herbicidal rating ABUTH” value ([10]; Rate 0.1250 kg/ha) was 9.0 and the “Preemergence herbicidal rating ABUTH” value ([10]; Rate 0.2500 kg/ha) was 9.0. For the same compound, the “Preemergence herbicidal rating AMBEL” value ([11]; Rate 0.0620 kg/ha) was 0.0, the “Preemergence herbicidal rating AMBEL” value ([11]; Rate 0.1250 kg/ha) was 1.0 and the “Preemergence herbicidal rating AMBEL” value ([11]; Rate 0.2500 kg/ha) was 7.0. For the same compound, the “Preemergence herbicidal rating CASOB” value ([12]; Rate 0.0620 kg/ha) was 0.0, the “Preemergence herbicidal rating CASOB” value ([12]; Rate 0.1250 kg/ha) was 0.0 and the “Preemergence herbicidal rating CASOB” value ([12]; Rate 0.2500 kg/ha) was 1.0. For the same compound, the “Preemergence herbicidal rating CHEAL” value ([13]; Rate 0.0620 kg/ha) was 9.0, the “Preemergence herbicidal rating CHEAL” value ([13]; Rate 0.1250 kg/ha) was 9.0 and the “Preemergence herbicidal rating CHEAL” value ([13]; Rate 0.2500 kg/ha) was 9.0. For the same compound, the “Preemergence herbicidal rating ORYSAT” value ([14]; Rate 0.0620 kg/ha) was 1.0, the “Preemergence herbicidal rating ORYSAT” value ([14]; Rate 0.1250 kg/ha) was 2.0 and the “Preemergence herbicidal rating ORYSAT” value ([14]; Rate 0.2500 kg/ha) was 2.0. For the same compound, the “Preemergence herbicidal rating TRZAWR” value ([15]; Rate 0.0620 kg/ha) was 1.0, the “Preemergence herbicidal rating TRZAWR” value ([15]; Rate 0.1250 kg/ha) was 1.0 and the “Preemergence herbicidal rating TRZAWR” value ([15]; Rate 0.2500 kg/ha) was 2.0. The “herbicidal rating, ECHORC” value ([16]; rate 0.0320 kg/ha) was 5.0, the “herbicidal rating, ECHORC” value ([16]; rate 0.1250 kg/ha) was 9.0 and the “herbicidal rating, CYPSE” value ([17]; rate 0.0320 kg/ha) was 0.0. The “herbicidal rating, CYPSE” value ([17]; rate 0.1250 kg/ha) was 0.0, the “herbicidal rating, SAGPY” value ([18]; rate 0.0320 kg/ha) was 0.0 and the “herbicidal rating, SAGPY” value ([18]; rate 0.1250 kg/ha) was 2.0. The “herbicidal rating, ORYSAT (rice tolerance)” value ([19]; rate 0.0320 kg/ha) was 0.0 and the “herbicidal rating, ORYSAT (rice tolerance)” value ([19]; rate 0.1250 kg/ha) was 2.0.

`Cc1cccnc1-c1nsc2cc(F)c(-n3c(=O)cc(C(F)(F)F)n(C)c3=O)cc12` [Compound 44, 3-[6-fluoro-3-(3-methyl-2-pyridyl)-1,2-benzisothiazol-5-yl]-1-methyl-6-(trifluoromethyl)uracil] was tested, and the “Postemergence herbicidal rating, ABUTH” value ([1]; rate 0.0320 kg/ha) was 9.0, the “Postemergence herbicidal rating, ABUTH” value ([1]; rate 0.0620 kg/ha) was 9.0 and the “Postemergence herbicidal rating, AMBEL” value ([2]; rate 0.0320 kg/ha) was 9.0. The “Postemergence herbicidal rating, AMBEL” value ([2]; rate 0.0620 kg/ha) was 9.0, the “Postemergence herbicidal rating, CASOB” value ([3]; rate 0.0320 kg/ha) was 2.0 and the “Postemergence herbicidal rating, CASOB” value ([3]; rate 0.0620 kg/ha) was 4.0. For the same compound, the “Postemergence herbicidal rating, CHEAL” value ([4]; rate 0.0320 kg/ha) was 9.0, the “Postemergence herbicidal rating, CHEAL” value ([4]; rate 0.0620 kg/ha) was 9.0 and the “Postemergence herbicidal rating, IPOHE” value ([5]; rate 0.0320 kg/ha) was 9.0. The “Postemergence herbicidal rating, IPOHE” value ([5]; rate 0.0620 kg/ha) was 9.0, the “Postemergence herbicidal rating, ECHCG” value ([6]; rate 0.0320 kg/ha) was 1.0 and the “Postemergence herbicidal rating, ECHCG” value ([6]; rate 0.0620 kg/ha) was 3.0. For the same compound, the “Postemergence herbicidal rating, ORYSAT” value ([7]; rate 0.0320 kg/ha) was 2.0, the “Postemergence herbicidal rating, ORYSAT” value ([7]; rate 0.0620 kg/ha) was 3.5 and the “Postemergence herbicidal rating, TRZAWR” value ([8]; rate 0.0320 kg/ha) was 4.0. The “Postemergence herbicidal rating, TRZAWR” value ([8]; rate 0.0620 kg/ha) was 5.0, the “Postemergence herbicidal rating, ZEAMX” value ([9]; rate 0.0320 kg/ha) was 5.0 and the “Postemergence herbicidal rating, ZEAMX” value ([9]; rate 0.0620 kg/ha) was 5.5. For the same compound, the “Preemergence herbicidal rating ABUTH” value ([10]; Rate 0.0620 kg/ha) was 9.0, the “Preemergence herbicidal rating ABUTH” value ([10]; Rate 0.1250 kg/ha) was 9.0 and the “Preemergence herbicidal rating ABUTH” value ([10]; Rate 0.2500 kg/ha) was 9.0. For the same compound, the “Preemergence herbicidal rating AMBEL” value ([11]; Rate 0.0620 kg/ha) was 8.0, the “Preemergence herbicidal rating AMBEL” value ([11]; Rate 0.1250 kg/ha) was 9.0 and the “Preemergence herbicidal rating AMBEL” value ([11]; Rate 0.2500 kg/ha) was 9.0. For the same compound, the “Preemergence herbicidal rating CASOB” value ([12]; Rate 0.0620 kg/ha) was 1.0, the “Preemergence herbicidal rating CASOB” value ([12]; Rate 0.1250 kg/ha) was 5.5 and the “Preemergence herbicidal rating CASOB” value ([12]; Rate 0.2500 kg/ha) was 9.0. The “Preemergence herbicidal rating CHEAL” value ([13]; Rate 0.0620 kg/ha) was 9.0, the “Preemergence herbicidal rating CHEAL” value ([13]; Rate 0.1250 kg/ha) was 9.0 and the “Preemergence herbicidal rating CHEAL” value ([13]; Rate 0.2500 kg/ha) was 9.0. The “Preemergence herbicidal rating ORYSAT” value ([14]; Rate 0.0620 kg/ha) was 6.5, the “Preemergence herbicidal rating ORYSAT” value ([14]; Rate 0.1250 kg/ha) was 8.0 and the “Preemergence herbicidal rating ORYSAT” value ([14]; Rate 0.2500 kg/ha) was 8.0. For the same compound, the “Preemergence herbicidal rating TRZAWR” value ([15]; Rate 0.0620 kg/ha) was 6.0, the “Preemergence herbicidal rating TRZAWR” value ([15]; Rate 0.1250 kg/ha) was 7.0 and the “Preemergence herbicidal rating TRZAWR” value ([15]; Rate 0.2500 kg/ha) was 9.0. For the same compound, the “herbicidal rating, ECHORC” value ([16]; rate 0.0080 kg/ha) was 3.0, the “herbicidal rating, ECHORC” value ([16]; rate 0.0320 kg/ha) was 8.5 and the “herbicidal rating, ECHORC” value ([16]; rate 0.1250 kg/ha) was 9.0. The “herbicidal rating, CYPSE” value ([17]; rate 0.0080 kg/ha) was 0.0, the “herbicidal rating, CYPSE” value ([17]; rate 0.0320 kg/ha) was 9.0 and the “herbicidal rating, CYPSE” value ([17]; rate 0.1250 kg/ha) was 9.0. For the same compound, the “herbicidal rating, SAGPY” value ([18]; rate 0.0080 kg/ha) was 0.0, the “herbicidal rating, SAGPY” value ([18]; rate 0.0320 kg/ha) was 4.5 and the “herbicidal rating, SAGPY” value ([18]; rate 0.1250 kg/ha) was 9.0. For the same compound, the “herbicidal rating, ORYSAT (rice tolerance)” value ([19]; rate 0.0080 kg/ha) was 0.0, the “herbicidal rating, ORYSAT (rice tolerance)” value ([19]; rate 0.0320 kg/ha) was 7.5 and the “herbicidal rating, ORYSAT (rice tolerance)” value ([19]; rate 0.1250 kg/ha) was 7.5.
